Data on 18 molecules can be found in patent US7419790B2, “Sodium-independent transporter carrying acidic amino acid and its gene” (J-Pharma Co., Ltd, priority 2002, dated 2008).

In data set [1] the target is T1, AGT1-4F2hc fusion protein (Mus musculus, UniProt P10852+Q91WN3).
T1 sequence (Q91WN3+P10852 with tags, fused parts or gaps): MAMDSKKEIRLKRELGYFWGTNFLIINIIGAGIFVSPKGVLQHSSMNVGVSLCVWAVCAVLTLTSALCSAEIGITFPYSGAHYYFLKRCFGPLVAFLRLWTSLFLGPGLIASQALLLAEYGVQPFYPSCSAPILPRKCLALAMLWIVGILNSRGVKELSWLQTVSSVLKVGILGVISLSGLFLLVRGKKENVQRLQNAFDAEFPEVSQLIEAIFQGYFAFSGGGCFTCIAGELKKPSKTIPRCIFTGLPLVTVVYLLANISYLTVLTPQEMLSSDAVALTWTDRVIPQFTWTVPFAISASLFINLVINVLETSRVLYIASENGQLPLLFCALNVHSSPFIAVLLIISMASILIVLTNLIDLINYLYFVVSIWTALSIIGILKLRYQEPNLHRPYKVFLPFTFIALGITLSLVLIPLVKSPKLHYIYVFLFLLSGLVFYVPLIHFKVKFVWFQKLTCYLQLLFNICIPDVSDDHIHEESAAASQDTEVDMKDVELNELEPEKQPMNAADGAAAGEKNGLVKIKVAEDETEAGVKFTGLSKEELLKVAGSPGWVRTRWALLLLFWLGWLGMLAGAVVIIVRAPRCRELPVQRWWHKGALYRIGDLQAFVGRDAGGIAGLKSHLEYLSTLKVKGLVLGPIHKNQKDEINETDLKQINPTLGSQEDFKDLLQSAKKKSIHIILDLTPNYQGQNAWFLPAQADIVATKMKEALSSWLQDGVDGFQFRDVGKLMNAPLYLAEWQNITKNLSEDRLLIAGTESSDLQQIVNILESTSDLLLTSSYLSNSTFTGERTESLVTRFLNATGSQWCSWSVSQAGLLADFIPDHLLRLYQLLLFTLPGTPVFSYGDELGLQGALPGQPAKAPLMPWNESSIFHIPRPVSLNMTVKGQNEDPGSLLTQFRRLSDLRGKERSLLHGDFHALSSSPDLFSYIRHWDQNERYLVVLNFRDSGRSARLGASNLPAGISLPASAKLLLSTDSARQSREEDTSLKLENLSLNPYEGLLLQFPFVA
Kind of data set: Inhibition of 14C-aspartic acid uptake by added amino acids and analogues, oocytes expressing AGT1-4F2hc. The format is cell-based. As to conditions: 2 mM non-labeled compound, 14C-aspartic acid 20 μM, sodium-free uptake solution. How it is done:
However, a sodium-free uptake solution was used and the uptake ^14C-aspartic acid (20 μM) was measured in the presence and absence of 2 mM of various compounds (non-labeled).

The target in data set [2] is T1, AGT1-4F2hc fusion protein. Put plainly: Uptake of radio-labeled amino acids by oocytes expressing AGT1-4F2hc. It is filed as cell-based. As to conditions: oocyte injected with AGT1-4F2hc cRNA, 14C compound as substrate. An excerpt: With regard to a substrate, various compounds which were labeled with radioactivity were used instead of ^14C-aspartic acid.
A further data set addresses T2, AGT1-rBAT fusion protein (Mus musculus, UniProt Q91WN3+Q91WV7).
T2 construct: expressed in transfected cells; host or cells: oocyte injected with AGT1-rBAT fusion protein gene cRNA
T2 sequence (Q91WN3+Q91WV7 with tags, fused parts or gaps): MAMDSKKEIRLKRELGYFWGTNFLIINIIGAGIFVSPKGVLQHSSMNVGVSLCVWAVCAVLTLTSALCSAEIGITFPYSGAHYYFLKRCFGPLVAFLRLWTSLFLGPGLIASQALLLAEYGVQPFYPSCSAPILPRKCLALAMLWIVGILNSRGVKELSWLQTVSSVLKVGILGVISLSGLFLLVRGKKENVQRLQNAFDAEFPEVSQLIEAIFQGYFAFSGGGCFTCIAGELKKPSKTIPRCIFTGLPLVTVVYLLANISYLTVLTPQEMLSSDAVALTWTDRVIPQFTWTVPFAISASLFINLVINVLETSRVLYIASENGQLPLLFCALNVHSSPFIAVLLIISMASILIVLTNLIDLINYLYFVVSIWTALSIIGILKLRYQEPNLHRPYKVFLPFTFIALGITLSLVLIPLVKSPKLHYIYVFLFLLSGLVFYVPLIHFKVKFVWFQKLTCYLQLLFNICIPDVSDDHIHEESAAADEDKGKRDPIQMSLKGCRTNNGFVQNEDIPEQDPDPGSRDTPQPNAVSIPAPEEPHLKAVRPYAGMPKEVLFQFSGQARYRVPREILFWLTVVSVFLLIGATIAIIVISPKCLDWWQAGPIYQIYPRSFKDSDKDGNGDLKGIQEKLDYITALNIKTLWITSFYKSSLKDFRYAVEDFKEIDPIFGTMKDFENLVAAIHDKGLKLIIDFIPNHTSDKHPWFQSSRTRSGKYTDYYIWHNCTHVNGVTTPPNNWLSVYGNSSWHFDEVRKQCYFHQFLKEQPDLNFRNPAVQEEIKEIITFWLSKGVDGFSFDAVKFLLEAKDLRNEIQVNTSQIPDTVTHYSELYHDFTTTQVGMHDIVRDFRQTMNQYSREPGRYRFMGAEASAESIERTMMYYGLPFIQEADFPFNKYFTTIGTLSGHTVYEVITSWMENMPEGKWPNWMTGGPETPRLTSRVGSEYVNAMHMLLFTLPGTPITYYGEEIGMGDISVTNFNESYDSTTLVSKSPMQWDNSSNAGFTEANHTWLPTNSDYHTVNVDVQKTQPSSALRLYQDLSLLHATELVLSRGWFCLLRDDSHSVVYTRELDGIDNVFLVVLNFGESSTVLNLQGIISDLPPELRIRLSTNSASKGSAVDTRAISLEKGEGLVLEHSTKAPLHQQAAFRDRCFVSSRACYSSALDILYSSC
Kind of data set: Uptake of 14C-aspartic acid by oocytes expressing AGT1-rBAT. It is filed as cell-based. As to conditions: oocyte injected with AGT1-rBAT cRNA; 14C-aspartic acid 20 μM, 30 minutes, compared with water-injected control.

Data set [3] deals with T1, AGT1-4F2hc fusion protein. Put plainly: Michaelis-Menten kinetic analysis of substrate uptake by oocytes expressing AGT1-4F2hc. The settings on record: AGT1-4F2hc in oocytes; ratio to Vmax value of L-aspartic acid; mean value ± standard error.
In another data set the test system is N[C@@H](CCC(=O)O)C(=O)O. Put plainly: cells, lysate or membranes. As to conditions: other: substrate transport by AGT1-4F2hc in Xenopus oocytes, sodium-free uptake solution; mean value ± standard error; pH 7.4.
Substrate in data set [4]: N[C@@H](CC(=O)O)C(=O)O
Kind of data set: cells, lysate or membranes. The settings on record: other: AGT1-rBAT in Xenopus oocytes; pH 7.4.

Consider `N[C@@H](CSSC[C@H](N)C(=O)O)C(=O)O` [cystine], for which the “effect on uptake of 14C-aspartic acid mediated by AGT1-4F2hc (cis-inhibition)” value (shortened to “effect on uptake … (cis-inhibition)”) in data set [1] is listed as “did no affect”.
Take `N[C@@H](CS)C(=O)O.O=S(=O)(O)O` [L-cysteine sulfate]: in data set [1], the “effect on uptake … (cis-inhibition)” value is recorded as “strongly inhibited”.
Regarding `N[C@@H](CCS(=O)(=O)O)C(=O)O` [L-homocysteate], in data set [1], the “effect on uptake … (cis-inhibition)” value is on record as “no inhibition effect”.
For the molecule γ-aminoisobutyric acid, the “effect on uptake … (cis-inhibition)” value in data set [1] was “did no affect”.
On the same count and under the same terms, with `N[C@@H](COS(=O)(=O)O)C(=O)O` [L-serine-O-sulfate] the entry was “strongly inhibited”; with `NC(C(=O)O)C(O)C(=O)O` (stereo not drawn) [threo-β-hydroxyaspartate], “strongly inhibited”.
On the same count and under the same terms, under `N[C@@H](CS(=O)(=O)O)C(=O)O` [L-cysteate] stands “strongly inhibited”.
As for `O=C(O)[C@@H]1CN[C@@H](C(=O)O)C1` (relative stereo) [L-trans-pyrrolidine-2,4-dicarboxylate], the “effect on uptake … (cis-inhibition)” value in data set [1] is “no inhibition effect”.
Same read-out and setting: with `N[C@@H](CCCC(=O)O)C(=O)O` [L-α-aminoadipate] the entry was “no inhibition effect”.
Same read-out and setting: with `N[C@H](CC(=O)O)C(=O)O` [D-aspartic acid] the entry was “did no affect”.
`N[C@@H](CC(=O)O)C(=O)O` [L-Aspartic acid]: the “uptake of radio-labeled substrate into the oocyte” value is “substantial uptake” in data set [2] (listed as L-aspartic acid) and “higher uptake” in data set [2] (listed as aspartic acid). Moreover, the “uptake of aspartic acid into the oocyte” value at AGT1-rBAT fusion protein is recorded as “higher uptake”. Also, the Vmax result in data set [3] is “(1.00)”. Also, in data set [1], the “effect on uptake … (cis-inhibition)” value was “significant cis-inhibiting effect”.
Take `N[C@H](CCC(=O)O)C(=O)O` [D-glutamic acid]: the “effect on uptake … (cis-inhibition)” value in data set [1] is “did no affect”.
For orientation: Km means the substrate concentration at which the rate is half of its maximum. Regarding “AGT1-4F2hc fusion protein (Mus musculus)”, the Km in the data set on N[C@@H](CCC(=O)O)C(=O)O is 21.8 ± 6.5 µM.
As for `N[C@@H](CCC(=O)O)C(=O)O` [L-Glutamic acid], in data set [2], the “uptake of radio-labeled substrate into the oocyte” value is given as “substantial uptake”. In data set [3], the Vmax was determined as 0.63 ± 0.10. In addition, the “effect on uptake … (cis-inhibition)” value in data set [1] is recorded as “significant cis-inhibiting effect”.
For `N[C@@H](CS)C(=O)O` [cysteine], the “effect on uptake … (cis-inhibition)” value in data set [1] is listed as “significant cis-inhibiting effect”.
With `NC1(C(=O)O)CC2CCC1C2` (stereo not drawn) [2-amino-2-norbornane-carboxylic acid], the “effect on uptake … (cis-inhibition)” value in data set [1] was “did no affect”.
Still for that read-out and setting: under `CC(C)[C@H]1CN[C@H](C(=O)O)[C@H]1CC(=O)O` [dihydrokainate] stands “no inhibition effect”.

B1: AGT1-rBAT fusion protein (Mus musculus) (protein)
chain: MAMDSKKEIRLKRELGYFWGTNFLIINIIGAGIFVSPKGVLQHSSMNVGVSLCVWAVCAVLTLTSALCSAEIGITFPYSGAHYYFLKRCFGPLVAFLRLWTSLFLGPGLIASQALLLAEYGVQPFYPSCSAPILPRKCLALAMLWIVGILNSRGVKELSWLQTVSSVLKVGILGVISLSGLFLLVRGKKENVQRLQNAFDAEFPEVSQLIEAIFQGYFAFSGGGCFTCIAGELKKPSKTIPRCIFTGLPLVTVVYLLANISYLTVLTPQEMLSSDAVALTWTDRVIPQFTWTVPFAISASLFINLVINVLETSRVLYIASENGQLPLLFCALNVHSSPFIAVLLIISMASILIVLTNLIDLINYLYFVVSIWTALSIIGILKLRYQEPNLHRPYKVFLPFTFIALGITLSLVLIPLVKSPKLHYIYVFLFLLSGLVFYVPLIHFKVKFVWFQKLTCYLQLLFNICIPDVSDDHIHEESAAADEDKGKRDPIQMSLKGCRTNNGFVQNEDIPEQDPDPGSRDTPQPNAVSIPAPEEPHLKAVRPYAGMPKEVLFQFSGQARYRVPREILFWLTVVSVFLLIGATIAIIVISPKCLDWWQAGPIYQIYPRSFKDSDKDGNGDLKGIQEKLDYITALNIKTLWITSFYKSSLKDFRYAVEDFKEIDPIFGTMKDFENLVAAIHDKGLKLIIDFIPNHTSDKHPWFQSSRTRSGKYTDYYIWHNCTHVNGVTTPPNNWLSVYGNSSWHFDEVRKQCYFHQFLKEQPDLNFRNPAVQEEIKEIITFWLSKGVDGFSFDAVKFLLEAKDLRNEIQVNTSQIPDTVTHYSELYHDFTTTQVGMHDIVRDFRQTMNQYSREPGRYRFMGAEASAESIERTMMYYGLPFIQEADFPFNKYFTTIGTLSGHTVYEVITSWMENMPEGKWPNWMTGGPETPRLTSRVGSEYVNAMHMLLFTLPGTPITYYGEEIGMGDISVTNFNESYDSTTLVSKSPMQWDNSSNAGFTEANHTWLPTNSDYHTVNVDVQKTQPSSALRLYQDLSLLHATELVLSRGWFCLLRDDSHSVVYTRELDGIDNVFLVVLNFGESSTVLNLQGIISDLPPELRIRLSTNSASKGSAVDTRAISLEKGEGLVLEHSTKAPLHQQAAFRDRCFVSSRACYSSALDILYSSC
For the molecule B1, the Km in data set [4] stood at 20.1 ± 6.1 µM.
